Test results taken from patent US11076593B2, “Reperfusion with omega-3 glycerides promotes donor organ protection for transplantation” (The Trustees of Columbia University in the City of New York, priority 2013, dated 2021).

What was measured:
[1] = test system: isolated C57BL/6 mouse hearts; assay: Ex vivo I/R: release of injury markers (LDH, creatine kinase) into the perfusate
Description: Evidence supporting the methods and products of the invention has been established in an ex vivo model using hearts rapidly removed from ketamine/xylazine anesthetized 12-14 weeks old C57BL/6 mice weighing between 25-30 g that were retrograde perfused in a non-recirculating mode, using an isovolumic perfusion system through the well-known Langendorf System (FIG. 1). In this system isolated mouse hearts were initially perfused with a perfusion buffer containing KREB's solution containing (in mM) the following: 118 NaCl, 4.7 KCl, 2.5 CaCl2, 1.2 MgCl2, 25 NaHCO3, 5 Glucose, 0.4 Palmitate, 0.4 BSA, and 70 mU/1 insulin. […]
After the induced ischemia, control hearts were reperfused using the same Kreb's buffer. […] TG fatty acid (FA) composition (by weight) of the emulsion used in experiments 1-9 was determined by gas liquid chromatography and was as follows for the n-3 emulsion: C14:0, 5.4%; C16:0, 14.8%; C16:1, 8.4%; C18:0, 2.8%; C18:1, 12.7%; C18:2 (n-6), 2.6%; C18:3 (n-3), 0.8%; C20:1, 1.2%; C20:4 (n-6), 1.9%; C20:5 (EPA, n-3), 18.3%; C22:1, 0.2%; C22:4, 0.6%; C22:5, 2.6%; and C22:6 ([…], n-3), 27.7. […]
Myocardial injury was assessed by measuring the release of lactate dehydrogenase (LDH) from the effluent in the ex vivo I/R system and from blood samples in the in vivo LAD system, using the commercially available enzymatic kits (Pointe Scientific, INC, MI USA) as published earlier.^1,2 […]

[2] = test system: p10 C57BL/6J neonatal mice, cerebral H/I; assay: Unilateral cerebral hypoxia-ischemia (H/I) in neonatal mice, TTC infarct volume at 24 hr; format: in vivo, mouse; conditions: pre-H/I protocol, two i.p. doses; 24 hr reperfusion
Description: Three-day-old C57BL/6J neonatal mice of both genders were purchased from Jackson Laboratories (Bar Harbor, Me.) with their birth mother. The Rice-Vannucci model of H/I was used and modified to p10 neonatal mice.^5 Briefly, on postnatal day 10 H/I was induced by the ligation of the right common carotid artery, which was further cauterized and cut under isoflurane anesthesia. The investigator was blinded to the lipid emulsion treatment during the surgery and after the surgery. The entire surgical procedure was completed within 5 min for each mouse. Pups were then allowed to recover with their dams for 1.5 hr. Surrounding temperature during experiments was kept at 28° C. Mice were then exposed to systemic hypoxia for 15 min in a hypoxic chamber in a neonatal isolette (humidified 8% oxygen/nitrogen, Tech Air Inc., White Plains, N.Y.).^5 The ambient temperature inside the chamber during hypoxia was stabilized at 37±0.3° C. […]
After 24 hr of reperfusion, the animals were sacrificed by decapitation and brains were immediately harvested. […] Using Adobe Photoshop and NIH Image J imaging applications, planar areas of infarction on serial sections were summed to obtain the volume (mm^3) of infarcted tissue, which was divided by the total (infarcted+non-infarcted) volume of the hemisphere ipsilateral to carotid artery ligation, and expressed as a percentage of total volume. […]

SMILES | LDH release compared to I/R control hearts ([1]; SB-216763 (3 μM) plus 0.3% n-3 TG emulsion) | LDH release (fold change) compared to I/R control ([1]; inhibitor alone, from baseline through ischemia and reperfusion, 10 μM LY-294002, 3 μM SB216763) | infarct volume compared to saline control [2]
Cn1cc(C2=C(c3ccc(Cl)cc3Cl)C(=O)NC2=O)c2ccccc21 [SB216763] | significantly inhibited LDH release | significantly inhibited LDH release | 
Cc1c(C)c2c(c(C)c1O)CC[C@@](C)(CCC[C@H](C)CCC[C@H](C)CCCC(C)C)O2 [alpha-tocopherol] |  |  | no significant difference
